Where two headings read alike, the source gives them in different places.
What was measured:
[1] = test system: histone acetylation in P. falciparum 3D7-T648M; assay: Histone acetylation Western blot, drug-selected 3D7-T648M; assay type: cell-based; settings: trophozoites, 3 h exposure
Protocol: Synchronous trophozoite-stage (24-32hr post-invasion) cultures at 3–5% parasitemia and 2% hematocrit in complete medium were exposed to test compounds for 3 hr at 37°C. […] DMSO was tested at 0.1% as the vehicle-only control. Following drug exposure, parasites were isolated via saponin lysis ice-cold 0.1% saponin in phosphate-buffered saline (PBS). Isolated parasites were washed 3x in ice-cold PBS containing protease inhibitor cocktail (cOmplete mini, Roche) and lysed in 1x Laemmli Sample Buffer (Biorad) with 5% beta-mercaptoethanol (Sigma-Aldrich). Samples were heated at 99°C for 10 min before centrifugation. Equal quantities of solute were separated on Protean TGX Precast Gels (4–20% gradient) in Tris-SDS-glycine buffer, transferred to nitrocellulose membrane by iblot (Invitrogen), and blocked for 1h in tris-buffered saline (TBS) with 5% skim milk powder. Blocked membranes were probed with antibodies recognising tetra-acetylated H4 (H4ac4, Sigma-Aldrich 06–866), H4K8ac (CST #2594), H3K9ac (CST #9649) or H3 (CST #4499), at 1:1000 dilution, and PfBiP ([Shonhai et al., 2007]) (at 1:5000 dilution) in 3% milk powder TBS with 0.1% Tween 20 at 4°C overnight and with 800CW goat α-rabbit IgG (Licor) at 1:10,000 dilution. Membranes were visualised using a Licor Odyssey CLX imaging system and quantified using ImageJ.

[2] = molecular target: T1, PfAcAS A597V (Plasmodium falciparum, UniProt C6KTB4, A597V); assay: EnzChek assay, recombinant PfAcAS A597V; assay type: biochemical, P. falciparum
T1 sequence (C6KTB4 1-997 A597V): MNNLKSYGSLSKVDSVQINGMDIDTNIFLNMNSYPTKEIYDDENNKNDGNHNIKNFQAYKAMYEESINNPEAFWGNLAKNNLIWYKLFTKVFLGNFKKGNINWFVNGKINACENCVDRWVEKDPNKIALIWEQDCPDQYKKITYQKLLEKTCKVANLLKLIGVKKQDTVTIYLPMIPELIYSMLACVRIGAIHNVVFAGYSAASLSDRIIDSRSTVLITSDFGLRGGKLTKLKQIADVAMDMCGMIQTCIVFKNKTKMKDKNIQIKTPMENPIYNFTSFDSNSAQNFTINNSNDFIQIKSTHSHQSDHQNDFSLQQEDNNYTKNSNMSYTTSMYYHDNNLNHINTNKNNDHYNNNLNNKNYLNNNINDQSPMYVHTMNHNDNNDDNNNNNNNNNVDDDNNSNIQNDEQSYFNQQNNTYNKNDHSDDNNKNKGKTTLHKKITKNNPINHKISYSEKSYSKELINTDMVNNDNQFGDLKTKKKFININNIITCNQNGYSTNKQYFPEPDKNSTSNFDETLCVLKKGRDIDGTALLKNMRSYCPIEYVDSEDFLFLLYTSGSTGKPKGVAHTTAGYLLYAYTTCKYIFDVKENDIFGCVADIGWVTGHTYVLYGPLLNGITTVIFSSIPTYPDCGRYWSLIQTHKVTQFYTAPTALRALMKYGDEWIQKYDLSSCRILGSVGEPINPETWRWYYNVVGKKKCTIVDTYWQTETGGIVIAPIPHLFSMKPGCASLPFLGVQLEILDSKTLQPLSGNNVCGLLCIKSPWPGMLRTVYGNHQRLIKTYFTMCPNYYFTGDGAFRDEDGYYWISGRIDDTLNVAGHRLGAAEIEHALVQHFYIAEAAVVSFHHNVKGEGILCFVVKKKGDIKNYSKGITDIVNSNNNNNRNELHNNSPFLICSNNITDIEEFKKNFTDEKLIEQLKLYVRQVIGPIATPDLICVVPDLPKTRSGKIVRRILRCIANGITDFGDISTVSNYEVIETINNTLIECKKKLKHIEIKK
Protocol: (§1) Steady-state kinetic measurements were conducted at room temperature using a PheraStar plate reader (BMG). The first step of the reaction of PfAcAS, which produces inorganic pyrophosphate (PPi) that is converted to two molecules of inorganic phosphate using a pyrophosphatase enzyme, was continuously monitored using the EnzChek Phosphate Assay Kit, which gives an absorbance readout at 360 nm (Figure 4A) ([Webb, 1992]). […] By adding CoA, the reaction rapidly proceeds to the second step resulting in further release of pyrophosphate, making the EnzChek assay a suitable option to continuously monitor the activity of PfAcAS. Typical kinetic assays were carried out in clear, flat-bottom, polystyrene, 384-well plates (Greiner) in an 80 μL reaction volume containing 100 mM HEPES (pH7.4), 100 mM NaCl, 250 mM KCl, 50 mM MgCl2, 1 mM DTT, 0.004% Tween 20, 0.5 U/mL pyrophosphatase, 0.1 mM MESG, 0.5 U/mL PNP, 2 mM ATP, 2 mM acetate, 0.5 mM CoA and 5 nM recombinant PfAcAS WT or 10 nM recombinant PfAcAS A597V or T648M. Assays were performed by adding 40 μL of a 2-times concentrated substrate mixture including MESG to all wells, and the reactions started by adding 40 μL of a 2-times concentrated reaction mixture containing all other components. The reactions were carried out for 2 to 4 hr with absorbance readings at 360 nm every two to four minutes. Reaction rates were extracted from the linear phase of activity, usually using 10 to 20 points between times of 30 and 100 min of the reactions. Using a phosphate standard curve obtained under the same buffer conditions used for the PfAcAS reactions (Figure S5A), the rates were then converted to velocity per second, conversion of one nanomolar of phosphate, per nanomolar of enzyme, per second. The substrates Km values were determined by varying the concentration of one of the substrates at saturating concentration of the other two substrates. Steady-state data were fitted using the nonlinear, least-squares, curve-fitting programs of Sigma-Plot for Windows, version 14.0. Individual saturation curves were fit to Equation 1(Equation 1) v=VS/K+S where V is the maximal velocity, S is the substrate concentration and K is the Michaelis constant for the substrate (Km). Individual saturation curves displaying substrate inhibition were fit to Equation 2(Equation 2) v=VS/K+S×(1+S/Ks) where Ks is the substrate inhibition constant.
(§2) To determine the steady-state inhibition parameters and patterns associated with both inhibitors, PfAcAS activity was studied in the presence of variable concentrations of one substrate, ATP, acetate or CoA, fixed saturating concentration of the other two substrates (acetate and CoA, ATP and CoA, or ATP and acetate) and several fixed concentrations of inhibitor. Assay ready plates containing different concentrations of inhibitor were prepared using an Echo 550 acoustic dispenser (Labcyte Inc.). The assays were carried out as described in the previous section. […] For better comparison between both inhibitors and proteins, the ymin was fixed to zero and the ymax to 100. Inhibition data showing linear, competitive patterns in double-reciprocal plots were fit to Equation 4(Equation 4) v=VS/K(1+I/Ki)+S where Ki is the dissociation constant for the enzyme-inhibitor complex. Inhibition data showing linear, mixed inhibition patterns in double-reciprocal plots were fit to Equation 5(Equation 5) v=VS/K(1+I/Kis)+S(1+I/Kii) where Kis is the dissociation constant for the free enzyme-inhibitor complex and Kii is the dissociation constant for the enzyme-substrate-inhibitor complex. Inhibition data showing linear, uncompetitive patterns in double-reciprocal plots were fit to Equation 6(Equation 6) v=VS/K+S(1+I/Ki)

[3] = molecular target: T2, PfAcAS WT (Plasmodium falciparum, UniProt C6KTB4); assay: EnzChek assay, recombinant PfAcAS WT (steady-state kinetics and IC50); assay type: biochemical, P. falciparum
Protocol: as §1, §2

[4] = molecular target: T2, PfAcAS WT; assay: PfAcAS mode of inhibition studies (EnzChek); assay type: biochemical, P. falciparum; parameters: key to MoI (mode of inhibition), Kis/Kii,acetate / MoI (mode of inhibition), Ki,ATP / MoI (mode of inhibition), Kis,acetate / MoI (mode of inhibition), Ki,CoA: UC = uncompetitive; MI = mixed inhibition; C = competitive
Protocol: as §1, §2

[5] = test system: HepG2 cells; assay: HepG2 cytotoxicity; assay type: cell-based; settings: Homo sapiens, mammalian cell cytotoxicity
[6] = variable ATP, saturating acetate and CoA, linear uncompetitive, read-out: Ki versus ATP
[7] = variable CoA, saturating ATP and acetate, read-out: Ki versus CoA

| Structure (SMILES) | histone acetylation in 3D7-T648M parasite line [1] | Hill, AcAS A597V [2] | IC50 [2] [µM] | Hill, AcAS WT [3] | IC50 [3] [nM] | MoI (mode of inhibition), Ki,ATP ([4]; Table S6 (MMV019721 MoI)) | MoI (mode of inhibition), Ki,CoA ([4]; Table S6 (MMV019721 MoI)) | MoI (mode of inhibition), Kis,acetate ([4]; Table S6 (MMV019721 MoI)) | MoI (mode of inhibition), Kis/Kii,acetate ([4]; Table S6, fourth column (head printed MMV019721 MoI)) | Ki [4, 6] [nM] | Ki [4, 7] [nM] | Ki ([4]; variable acetate, saturating ATP and CoA, linear uncompetitive, read-out: Ki versus acetate) [nM] | EC50 [5] [µM] | Kii against acetate ([4]; linear mixed inhibition, enzyme-substrate-inhibitor complex) [nM] | Ki ([4]; linear mixed inhibition, free enzyme-inhibitor complex, read-out: Kis against acetate) [nM] |
| --- | --- | --- | --- | --- | --- | --- | --- | --- | --- | --- | --- | --- | --- | --- | --- |
| CCN(CC)S(=O)(=O)c1ccc(Cl)c(C(=O)Nc2ccc3nc(C)sc3c2)c1 [MMV019721] | little to no measurable effect | 0.58 ± 0.05 | 6.9 ± 1.2 | 0.85 ± 0.04 | 73 ± 4 | UC | C | UC | MI | 200 ± 8 | 22 ± 1 | 150 ± 10 | > 50 |  |  |
| O=C(NNC(=O)c1csnn1)c1ccc(Cl)cc1 [MMV084978] | protection |  | > 100 | 0.85 ± 0.06 | 370 ± 40 |  |  |  |  | 680 ± 26 | 690 ± 24 |  | > 50 | 390 ± 110 | 30 ± 3 |

Reference: PMC8878317, “Chemogenomics identifies acetyl-coenzyme A synthetase as a target for malaria treatment and prevention” (Cell Chemical Biology, 2022)
